Assay [1] deals with hypertriglyceridemia and hypercholesterolemia-induced animals. The assay can be described thus: Evaluation of triglyceride-inhibitory activities in hypertriglyceridemia and hypercholesterolemia-induced animals. Type of assay: in vivo, New Zealand White rabbits. The settings on record: oral, Formula 1 20 mg/kg/day, amlodipine 5 mg/kg/day; for average triglyceride concentration, 4 weeks: male rabbits on 0.5% cholesterol, 14% coconut oil diet, once per day for 4 weeks, fasted 12 to 16 hours. An excerpt: Male New Zealand White rabbits were used as a test animal. All animals, except for the G1 group animals (negative control group), were fed with an irradiation-sterilized hypertriglyceridemia and hypercholesterolemia diet, i.e., DYET #621082 (Purina #5321 chow with 0.5% cholesterol, 14% coconut oil & 2% Maltose Dextrin, Dyets, Inc., Bethlehem, Pa. 18017), which was purchased from Saeronbio Inc. In order to induce hypertriglyceridemia and hypercholesterolemia, the animals were supplied with the diet for more than 4 weeks. After collecting the blood samples from the animals, serum biochemical analyses were performed thereon. Animals showing significant changes in total cholesterol levels and triglyceride levels were selected, in comparison with the non-treated control group. The selected animals were divided into 4 groups on the basis of the total cholesterol levels and triglyceride levels, thereby all the groups having substantially equal average values in the total cholesterol levels and triglyceride levels. The test materials were dissolved in saline containing 0.5% carboxymethyl-cellulose sodium and 1% Tween 80 and then administered directly into the stomach using an oral syringe adapted with a latex catheter, once per day for 4 weeks. The test groups are as in the following Table 3.
The blood samples were collected through the jugular vein, from the animals at the day initiating the administration of the test material(s) (i.e., at the time of group-dividing, 0 week), and from the animals (which were fasted for 12 to 16 hours before collecting the blood) at 4 weeks after initiating the administration of the test material(s) (n=4-7).
The triglyceride concentrations in the hypertriglyceridemia and hypercholesterolemia-induced animals as in the above are presented in the following Table 4. The values in Table 4 represent average triglyceride concentrations (mg/dL) of the respective group.

The test system of assay [2] is hypercholesterolemia-induced animals. Description: Evaluation of triglyceride-inhibitory activities in hypercholesterolemia-induced animals. Type of assay: in vivo, New Zealand White rabbits. The settings on record: male rabbits on 1% cholesterol diet. An excerpt:
Male New Zealand White rabbits were used as a test animal. All animals, except for the G1 group animals (negative control group, n=4), were fed with an irradiation-sterilized hypercholesterolemia diet, i.e., DYET #620007 (Purina #5321 chow with 1% cholesterol, Dyets, Inc., Bethlehem, Pa. 18017), which was purchased from Central Lab. Animal Inc. In order to induce hypercholesterolemia, the animals were supplied with the diet for more than 8 weeks. After collecting the blood samples from the animals, serum biochemical analyses were performed thereon. Animals having total cholesterol levels of approximately 870 mg/dL were selected as a hypercholesterolemia-induced animal. The test materials were dissolved in saline containing 0.5% carboxymethylcellulose sodium and 1% Tween 80 and then administered directly into the stomach using an oral syringe adapted with a latex catheter, once per day for 4 weeks. The test groups are as in the following Table 1. […] The values in Table 2 represent average triglyceride concentrations (mg/dL) of the respective group.

In the case of `CCOC(=O)C1=C(COCCN)NC(C)=C(C(=O)OC)C1c1ccccc1Cl` (stereo not shown) [Amlodipine, reference compound], the “Percent inhibition of triglyceride in the blood” value in assay [1] (4 weeks, in comparison with the G2 group, once per day) was found to be 17.9%. Moreover, the “average triglyceride concentration, 4 weeks” value in assay [1] turned out to be 268.0 mg/dL.

Turning to `COc1cc(F)c(C(C)C)cc1-c1ccc(C(F)(F)F)cc1CN1C(=O)O[C@H](c2cc(C(F)(F)F)cc(C(F)(F)F)c2)[C@@H]1C` [Compound of Formula 1, (4S,5R)-5-[3,5-bis(trifluoromethyl)phenyl]-3-({2-[4-fluoro-2-methoxy-5-(propan-2-yl)phenyl]-5-(trifluoromethyl)phenyl}methyl)-4-methyl-1,3-oxazolidin-2-one], in assay [2] (baseline sample (0 week), before administration, group average), the “average triglyceride concentration, 0 week” value was 167.4 mg/dL. Besides, the “average triglyceride concentration, 2 weeks” value in assay [2] (oral, once per day, 2 weeks after initiating administration, fasted 12 to 16 hours, Formula 1 20 mg/kg/day, amlodipine 5, fenofibrate 30) was 255.8 mg/dL. Also, the “average triglyceride concentration, 4 weeks” value in assay [2] (oral, once per day, 4 weeks after initiating administration, fasted 12 to 16 hours, Formula 1 20 mg/kg/day, amlodipine 5, fenofibrate 30) stood at 356.7 mg/dL; in assay [1] it was 293.1 mg/dL. Further, in assay [1] (Oryctolagus cuniculus, 672 h, 4 weeks, in comparison with the G2 group, once per day, read-out: Percent inhibition of triglyceride in the blood), the inhibition at 20 mg/kg is 10.2%.

The values are drawn from patent US9486443B2, “Pharmaceutical composition for preventing or treating hypertriglyceridemia or hypertriglyceridemia-associated diseases” (priority 2011, dated 2016).
